Assay results published in patent publication US7488742B2, “Thrombin receptor antagonists” (Schering Corporation, priority 2000, dated 2009).

What follows are molecules tested against T1, thrombin receptor (Homo sapiens, UniProt P25116) (assay: High throughput thrombin receptor radioligand binding assay ([3H]haTRAP, platelet membranes)). Details: [3H]haTRAP binding to platelet membranes; read-out: thrombin receptor IC50 (concentration at which a 50% inhibition of thrombin receptor was observed).
T1 construct: tissue North Jersey Blood Center (East Orange, N.J.); host or cells: platelet membranes from platelet concentrates
T1 sequence (P25116 22-425): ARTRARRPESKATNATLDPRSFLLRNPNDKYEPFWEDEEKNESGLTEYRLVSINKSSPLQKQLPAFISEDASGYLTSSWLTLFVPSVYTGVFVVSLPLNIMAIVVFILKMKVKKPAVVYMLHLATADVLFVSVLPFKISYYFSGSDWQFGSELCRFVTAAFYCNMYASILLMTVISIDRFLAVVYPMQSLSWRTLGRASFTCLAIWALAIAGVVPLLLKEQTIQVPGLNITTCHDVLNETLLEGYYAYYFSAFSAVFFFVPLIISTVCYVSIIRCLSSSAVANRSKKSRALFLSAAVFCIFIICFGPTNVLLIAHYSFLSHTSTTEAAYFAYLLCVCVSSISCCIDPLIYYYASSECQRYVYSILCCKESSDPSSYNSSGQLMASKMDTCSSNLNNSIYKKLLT
Experimental: In Vitro Testing Procedure for Thrombin Receptor Antagonists:
The vessel was attached to the tritium line, frozen in liquid nitrogen and evacuated. […] At the completion of the reaction, the excess tritium was removed and the reacted peptide solution was diluted with DMF (0.5 ml) and filtered to remove the catalyst. The collected DMF solution of the crude peptide was diluted with water and freeze dried to remove the labile tritium. The solid peptide was redissolved in water and the freeze drying process repeated.
All steps were carried out at 4° C. under approved biohazard safety conditions. Platelets were centrifuged at 100×g for 20 minutes at 4° C. to remove red cells. The supernatants were decanted and centrifuged at 3000×g for 15 minutes to pellet platelets. […] This step was repeated two additional times. […] To complete membrane preparation, aliquots were thawed, pooled, and homogenized with 5 strokes of a Dounce homogenizer. Membranes were pelleted and washed 3 times in 10 mM triethanolamine-HCl, pH 7.4, 5 mM EDTA, and resuspended in 20-25 ml 50 mM Tris-HCl, pH 7.5, 10 mM MgCl2, 1 mM EGTA, and 1% DMSO.
High Throughput Thrombin Receptor Radioligand Binding Assay
Stock solutions (10 mM in 100% DMSO) of test compounds were further diluted in 100% DMSO. Unless otherwise indicated, 10 μl of diluted compound solutions and 90 μl of radioligand (a final concentration of 10 nM in 5% DMSO) were added to each well, and the reaction was started by the addition of 100 μl of membranes (40 μg protein/well). […] Compounds were tested at three concentrations (0.1, 1 and 10 μM).

Compound | IC50 [nM]
C[C@H]1[C@H](/C=C/c2ccc(-c3cccc(F)c3)cn2)[C@@H]2[C@@H](C)OC(=O)[C@]2(N)C[C@@H]1C [Example 20F] | 1 to 100
C[C@H]1[C@H](/C=C/c2ccc(-c3cccc(C#N)c3)cn2)[C@@H]2[C@@H](C)OC(=O)[C@]2(N)C[C@@H]1C [Example 20G] | 1 to 100
C[C@H]1[C@H](/C=C/c2ccc(-c3ccccc3C#N)cn2)[C@@H]2[C@@H](C)OC(=O)[C@]2(N)C[C@@H]1C [Example 20H] | 1 to 100

Second part, the molecule after the results:

IC50 [nM] | Compound
1 to 100 | CC[C@H]1[C@H](/C=C/c2ccc(-c3ccccc3)cn2)[C@@H]2[C@@H](C)OC(=O)[C@]2(C(N)=O)C[C@@H]1C [Example 17H]
1 to 100 | C[C@H]1[C@H](/C=C/c2ccc(-c3ccccc3)cn2)[C@@H]2[C@@H](C)OC(=O)[C@]2(N)C[C@@H]1C [Example 20E]
